Results on 73 compounds are retold here after PubChem BioAssay AID1996.

≈ marks a conversion by molar mass, not a printed value.

For the data set the following is noted: buffer; pH 7.4; 200.0 µM.
The term kinetic solubility denotes the concentration staying in solution when a stock, usually in DMSO, is diluted into the medium. For the compound `O=C(NC1CC1)C1CCCN(C(=O)NC2CCCCC2)C1` (stereo not drawn), the solubility (kinetic) is over 44 µg/mL.

`CN(C1(C)CCS(=O)(=O)C1)S(=O)(=O)c1ccc(F)cc1` (stereo not drawn) came in with a solubility (kinetic) of over 48.2 µg/mL.

For the compound `Cc1ccc[n+](CC(=O)Nc2ccc(Cl)c([N+](=O)[O-])c2)c1.[Cl-]`, the kinetic solubility was over 51.3 µg/mL.

`O=c1oc(/C=C/c2ccccc2)nc2ccccc12` registered a solubility (kinetic) of 0.7 µg/mL (≈ 2.81 µM).

For `Nc1ncnc2nc(SCCC(=O)O)[nH]c12`, the kinetic solubility was over 35.9 µg/mL.

As for `O=C(NCCc1cccc(Cl)c1)c1cc2ccccc2oc1=O`, the kinetic solubility is under 0.7 µg/mL.

In the case of `CC1=CC(C)C(COC(=O)CN2CCCCC2)C(C)C1` (stereo not drawn), the solubility (kinetic) is 8.4 µg/mL (≈ 30.1 µM).

Turning to `CCSc1nnc(NC(=O)C2CSC3(C)CCC(=O)N23)s1` (stereo not drawn), the solubility (kinetic) was over 51.7 µg/mL.

`S=C(CN1CCCC1=S)N1CCOCC1` came in with a solubility (kinetic) of over 36.7 µg/mL.

In turn, `O=C(CNS(=O)(=O)c1c(F)cccc1F)NC1CCCc2ccccc21` (stereo not drawn) had a solubility (kinetic) of over 57.1 µg/mL.

`COCCn1cnnc1SCC(=O)Nc1cc(C)on1` gave a kinetic solubility of over 44.6 µg/mL.

Take `O=C1NC(=Nc2ccccc2Cl)SC1(CO)CO`: the kinetic solubility was determined as 42.3 µg/mL (≈ 148 µM).

Compound `O=c1[nH]c2ccccc2n2c(C(F)(F)F)nnc12` showed a kinetic solubility of over 38.1 µg/mL.

Turning to `Cc1cc(Oc2ccc(N)cn2)cc(C)c1Cl`, the kinetic solubility was found to be 27.6 µg/mL (≈ 111 µM).

The compound `CCc1ccc(NC(=O)NCc2cccnc2)cc1` had a kinetic solubility of over 38.3 µg/mL.

`CC12COC3(C(=O)Nc4ccccc4F)CC1CCC32C` (stereo not drawn): the solubility (kinetic) is 9.1 µg/mL (≈ 31.4 µM).

Regarding `O=C(O)c1cccc(Nc2c([N+](=O)[O-])c(=O)oc3ccccc23)c1`, the solubility (kinetic) is over 48.9 µg/mL.

`OCCc1c[nH]c2ccc(OCc3ccccc3)cc12` yielded a kinetic solubility of 24.8 µg/mL (≈ 92.8 µM).

`CSc1nc(C(C)C)ccc1CNC(=O)CC(C)c1ccccc1` (stereo not drawn) displayed a kinetic solubility of 1.3 µg/mL (≈ 3.8 µM).

`NC(=O)c1ccc(CSc2nc3ccccc3s2)cc1` came in with a kinetic solubility of 1.4 µg/mL (≈ 4.66 µM). The solubility kinetic values of the last two compounds are within 1.5-fold of each other.

`Cc1ccc(NC(=O)C2CCCO2)c(Br)c1` (stereo not drawn) displayed a solubility (kinetic) of 37.5 µg/mL (≈ 132 µM).

The compound `Cc1cccc(NC(=S)NCCc2ccc(F)cc2)c1C` gave a solubility (kinetic) of 2.8 µg/mL (≈ 9.26 µM).

The compound `CCN1C(=O)c2ccc(C(=O)Nc3ccc4c(c3)OCO4)cc2C1=O` registered a solubility (kinetic) of 0.5 µg/mL (≈ 1.48 µM).

As to `Cc1ccc(S(=O)(=O)NCCNc2ccccc2[N+](=O)[O-])cc1`, the solubility (kinetic) was 1.1 µg/mL (≈ 3.28 µM).

Turning to `CC1=C(C(=O)OCc2ccccc2)C(c2ccccc2)NC(=O)N1` (stereo not drawn), the solubility (kinetic) stood at 2.8 µg/mL (≈ 8.69 µM).

`CCOC(=O)c1cc(C#N)c(N2CCNCC2)nc1C(F)(F)F` returned a solubility (kinetic) of over 49.2 µg/mL.

As for `Clc1ccc(CN2CCN(c3ccccc3)CC2)cn1`, the kinetic solubility stood at 21 µg/mL (≈ 73 µM).

Compound `O=C(Cn1ccc([N+](=O)[O-])n1)NCc1cccnc1` showed a kinetic solubility of over 39.2 µg/mL.

Compound `CC1CCCN(S(=O)(=O)c2cccc(C(=O)OCC(=O)N(C)Cc3c(F)cccc3Cl)c2)C1` (stereo not drawn) showed a kinetic solubility of 8.8 µg/mL (≈ 17.7 µM).

`COc1ccc2[nH]c(C(=O)N(C)c3ccc(F)cc3F)cc2c1` returned a solubility (kinetic) of under 0.3 µg/mL.

As to `Cc1ccc(C(=O)O)cc1NC(=O)C1CCN(S(=O)(=O)c2ccc3c(c2)OCCO3)CC1`, the kinetic solubility is over 69.1 µg/mL.

For the compound `Cc1cccc(NC(=O)CN(c2ccc(F)cc2)S(C)(=O)=O)c1`, the solubility (kinetic) turned out to be 42.4 µg/mL (≈ 126 µM).

Regarding `O=C(Cc1ccccc1)N1CCN(CCCc2ccccc2)CC1.O=C(O)C(=O)O`, the solubility (kinetic) was over 61.9 µg/mL.

Take `COc1ccccc1NS(=O)(=O)c1ccc(C)c(C(=O)Nc2cc(C)on2)c1`: the kinetic solubility was 22.4 µg/mL (≈ 55.8 µM).

Take `COc1ccc(NC(=O)CN(C)C(=O)C2=COCCO2)cc1`: the kinetic solubility was over 45.9 µg/mL.

For the compound `CC1=CSC2=NS(=O)(=O)CCN12`, the solubility (kinetic) is over 30.6 µg/mL.

Compound `CC(=O)Nc1ccc(NC(=O)N(c2ccccc2)c2ccccc2)cc1` yielded a kinetic solubility of 6.4 µg/mL (≈ 18.5 µM).

Turning to `COc1ccc(N2CCN(C(=O)c3cc4c(s3)CCCCC4)CC2)cc1`, the solubility (kinetic) came out at 5.3 µg/mL (≈ 14.3 µM).

As for `Cc1ccc(NC(=O)CNC(=O)c2ccco2)c(Cl)c1`, the solubility (kinetic) is over 43.9 µg/mL.

Consider `COc1ccc(/C=C(\C#N)C(=O)OC2CCOC2=O)cc1` (stereo not drawn), for which the solubility (kinetic) was over 43.1 µg/mL.

`O=C(COC(=O)c1ccc(Cl)nc1)NCCc1ccc(F)cc1` had a kinetic solubility of over 50.5 µg/mL.

`COc1ccc(CNc2cccc(C)n2)c(O)c1` gave a kinetic solubility of 28 µg/mL (≈ 115 µM).

As for `Cc1cc(=O)oc2cc(N3C(=O)CC(Cc4ccccc4)C3=O)ccc12` (stereo not drawn), the solubility (kinetic) worked out at 8.3 µg/mL (≈ 23.9 µM).

Regarding `O=C(NCc1ccco1)c1ccc2nccnc2c1`, the solubility (kinetic) is over 38 µg/mL.

With `CSCCC1COC(c2cccs2)=N1` (stereo not drawn), the kinetic solubility was 29 µg/mL (≈ 128 µM).

Consider `Cn1ccnc1SCC(=O)Nc1ccc2c(c1)OCO2`, for which the solubility (kinetic) is over 43.7 µg/mL.

Consider `Cc1ccc(C(=O)NC2CCCCCCC2)c(Cl)c1`, for which the kinetic solubility was found to be 3.2 µg/mL (≈ 11.4 µM).

`CC(=O)c1c(C)[nH]c(=S)c(C#N)c1-c1ccc(Cl)cc1`: the kinetic solubility was over 45.4 µg/mL.

Turning to `O=C(/C(=C/c1cccnc1)n1ccnc1)c1ccc(Cl)cc1Cl`, the solubility (kinetic) is over 51.6 µg/mL.

On to `O=[N+]([O-])c1ccc(O)c(C=Nc2cccc3ccccc23)c1`, for which the kinetic solubility is 24.6 µg/mL (≈ 84.2 µM).

Turning to `COCc1cc(C)n(CC(=O)NCC2CCCO2)c(=O)c1C#N` (stereo not drawn), the solubility (kinetic) was 41.8 µg/mL (≈ 131 µM). This solubility kinetic lies about 1.7-fold higher than the previous one.

As for `O=C(/C=C/c1ccc([N+](=O)[O-])cc1)/C=C/c1ccco1`, the solubility (kinetic) turned out to be 3.1 µg/mL (≈ 11.5 µM).

The compound `Cn1ccnc1SCc1cccc([N+](=O)[O-])c1` gave a kinetic solubility of over 37.4 µg/mL.

The compound `Cc1cccc(CC(C)NC(=O)CCc2nnc(-c3ccccc3)o2)n1` (stereo not drawn) had a kinetic solubility of over 52.6 µg/mL.

For `CNc1nc(N)c([N+](=O)[O-])c(N2CCCCCC2)n1`, the solubility (kinetic) is 39.5 µg/mL (≈ 148 µM).

Compound `Cc1ccc(S(=O)(=O)N[C@H](C(=O)OCC(=O)NC(=O)NCc2ccco2)C(C)C)cc1` showed a kinetic solubility of over 67.7 µg/mL.

Compound `FC(F)(F)c1cccc(NC(=S)N2CCCC2)c1` yielded a solubility (kinetic) of over 41.1 µg/mL.

`COc1ccc(CN(C)CC(=O)Nc2c(C)cccc2C)c(OC)c1` gave a kinetic solubility of over 51.4 µg/mL.

On to `Cc1ccc(NC(=O)CCn2c(=O)[nH]c3ccsc3c2=O)cc1`, for which the solubility (kinetic) worked out at 8.2 µg/mL (≈ 24.9 µM).

For the compound `CC(C)N(Cc1ccccc1)C(=O)COC(=O)c1c(F)cccc1F`, the kinetic solubility is over 52.1 µg/mL.

In turn, `COC(=O)NC(=C(Cl)Cl)P(=O)(c1ccccc1)c1ccccc1` returned a solubility (kinetic) of over 55.5 µg/mL.

Compound `CC(C)c1ccc(/C=C2\SC(N3CCOCC3)=NC2=O)cc1` displayed a kinetic solubility of 29.9 µg/mL (≈ 94.5 µM).

`O=C(CCn1c(=O)sc2ccccc21)NC1CCCCC1` yielded a solubility (kinetic) of 27.4 µg/mL (≈ 90 µM).

The compound `CC(=O)Nc1c2c(nn1-c1ccc(C)cc1)CS(=O)(=O)C2` showed a solubility (kinetic) of over 45.8 µg/mL.

As to `Nc1ccccc1Nc1c(F)c(F)nc(F)c1Cl`, the solubility (kinetic) stood at 37.6 µg/mL (≈ 137 µM).

As for `Cc1ccc(S(=O)(=O)N2CCN(C(=O)COC(=O)CNC(=O)c3ccc(C(C)(C)C)cc3)CC2)c(C)c1`, the solubility (kinetic) worked out at 16.5 µg/mL (≈ 31.2 µM).

In the case of `Cc1cc(C(=O)N2CCN(c3ncccn3)CC2)nn1C`, the solubility (kinetic) is over 43 µg/mL.

Consider `CSc1ncc(C(=O)NCCCc2ccccc2)c(C)n1`, for which the kinetic solubility is 43 µg/mL (≈ 143 µM).

`NC(=O)c1cc(-c2cccnc2)nc2ccc(Br)cc12` had a kinetic solubility of 2.2 µg/mL (≈ 6.7 µM). This solubility kinetic lies about 20-fold lower than the previous one.

`CS(=O)(=O)N(CC(=O)NCCSCc1cccc(Cl)c1)c1ccc(F)cc1` had a kinetic solubility of 38 µg/mL (≈ 88.2 µM).

As to `Cc1ccnc(NC(=O)c2cccc(OC(F)F)c2)n1`, the kinetic solubility is 39.9 µg/mL (≈ 143 µM).

In turn, `O=C(NCCN1CCOCC1)c1cc(Br)ccc1Cl` gave a solubility (kinetic) of over 52.1 µg/mL.

In the case of `CCOc1ccccc1NC(=O)C1CCCN(S(C)(=O)=O)C1` (stereo not drawn), the kinetic solubility was over 49 µg/mL.
